Data published in patent US10239889B1, “Pentacyclic compound” (Eisai R&D Management Co., Ltd., priority 2017, dated 2019).

Test system: rat primary septal neuron culture
Assay: Measurement of acetylcholine (ACh) release in the rat primary septal neuron culture system in the presence of NGF
Type: cell-based
Details: rat primary septal neurons, with NGF, one day after compound addition, ACh by HPLC
Source text: Measurement of acetylcholine (ACh) release in the rat primary septal neuron culture system in the presence of NGF
(1) Rat Primary Septal Neuron Culture
The septal area was isolated from Sprague-Dawley (SD) rats (Charles River Laboratories Japan, Inc.) at a fetal age of 18 days, and cultured.
Specifically, fetuses were aseptically removed from pregnant rats under isoflurane anesthesia. The brain was extracted from each fetus, and immersed in ice-cooled L-15 medium (11415-064, Thermo Fisher Scientific). The septal area was dissected from the extracted brain under a stereoscopic microscope. The dissected septal area was subjected to enzyme treatment in an enzyme solution containing 0.25% trypsin (15050-065, Thermo Fisher Scientific) and 0.01% DNase (D5025-150KU, Sigma) at 37° C. for 30 minutes, thereby dispersing the cells. In this case, the enzyme reaction was terminated by adding inactivated horse serum (26050-088, Thermo Fisher Scientific). The enzyme-treated solution was centrifuged at 1000 rpm for 3 minutes, and the supernatant was removed. A medium in an amount of 10 mL was added to the obtained cell mass. The medium used was Dulbecco's Modified Eagle's Medium (044-29765, WAKO) supplemented with N2 supplement (17502-048, Thermo Fisher Scientific), 1 mM sodium pyruvate (11360-070, Thermo Fisher Scientific), and Penicillin-Streptomycin (15140-1221, Thermo Fisher Scientific). The cells of the cell mass to which the medium was added were redispersed by gentle pipetting, and then centrifuged again at 1000 rpm for 3 minutes, and the supernatant was removed. The medium in an amount of 10 mL was added to the obtained cell mass, and the cell dispersion was filtered through a 40-μm nylon mesh (Cell Strainer) to remove the cell mass, thereby obtaining a neuronal cell suspension. The neuronal cell suspension was diluted with the medium, and 10% inactivated bovine serum (26140-079, Thermo Fisher Scientific) and 10% inactivated horse serum were added. Thereafter, 100 μL/well of the suspension was seeded in a 96-well plate (354461, CORNING) pre-coated with poly-D-lysine so that the initial culture density was 1.4×10^5 cells/cm^2. After the seeded cells were cultured under 5% CO2-95% air in a 37° C. incubator for 2 days, the entire medium was replaced with 120 μL of fresh medium, and the cells were subsequently cultured for 5 days.
On the 7th day of culture, compound was added in the following manner. A solution of the test compound in DMSO was diluted with the medium so that the concentration was 10 times higher than the final concentration. NGF (450-01, PEPRO TECH, INC.) was prepared at 0.3 ng/mL. These two solutions were added each in an amount of 15 μL/well, and the mixture was mixed well. The final DMSO concentration was 0.1% or less. Moreover, only DMSO and NGF were added to the control group.
(3) ACh Release Measurement
One day after compound addition, an amount of ACh release was measured by HPLC in the following manner. A warmed buffer was added at 100 μL/well to the well after the medium was eliminated, and the buffer was immediately removed. Thereafter, a buffer to which 10 μm choline, 10 μm physostigmine, and 6 mM KCl were added was added at 120 μL/well. The buffer was prepared by adding 125 mM NaCl, 25 mM 4-(2-hydroxyethyl)-1-piperazineethanesulfonic acid, 1.2 mM KH2PO4, 1.2 mM MgSO4, 2.2 mM CaCl2 (2H2O), and 10 mM glucose to sterilized water, and the final pH of the solution was set to 7.4. After the 96-well plate to which the buffer was added was incubated under 5% CO2-95% air in a 37° C. incubator for 40 minutes, 80 μL of buffer was collected. An internal standard solution IPHC (5×10^−7 M) was added in an amount of 6 μL to the collected buffer, and the buffer was transferred to a tube for HPLC measurement and subjected to HPLC measurement. […]

Row | SMILES | Concentration (μM) showing a 20% or more increase from the amount of ACh in the control group [µM]
1 | CN1CCc2c(sc3nc4n(c(=O)c23)-c2ccc(F)cc2C(=O)N(C)C4)C1 [Example 1] | 0.1
2 | CN1CCc2c(sc3nc4n(c(=O)c23)-c2sccc2C(=O)N(C)C4)C1 [Example 3, 5,10-dimethyl-5,6,9,10,11,12-hexahydropyrido[4″,3″:4′,5′]thieno[2′,3′:4,5]pyrimido[1,2-a]thieno[3,2-f][1,4]diazepine-4,13-dione] | 0.1
